# Patent US20150051264A1, “INHIBITORS OF NOX4 EXPRESSION AND /OR NOX4 FUNCTION AND THEIR USE IN THE PREVENTION AND TREATMENT OF NERVE INJURY AND/OR NEUROPATHIC PAIN” (FRAUNHOFER-GESELLSCHAFT ZUR FOERDERUNG DER ANGEWANDTEN …, priority 2011, published 2015)
# How the values were obtained:
# Nox4 mRNA = Nox4 mRNA expression by quantitative real-time RT-PCR after tamoxifen induction in Nox4-CreERT2 mice; type: in vivo, mouse; settings: tamoxifen 1 mg/d i.p. for 3 d
# Method: Tamoxifen induction. Tamoxifen (Sigma Aldrich) was prepared by dissolving in ethanol (10 mg per 100 μl) and mixing this solution with 900 μl corn oil for a final concentration of 10 mg/ml. Eight- to ten-week-old Nox4-CreERT2 mice were i.p. injected with 100 μl tamoxifen solution (1 mg, corresponding to about 40 mg/kg tamoxifen) once a day at 10, 11 and 12 d after SNI.
# Mice were exsanguinated under deep isoflurane anaesthesia, and tissues were dissected, snap frozen in liquid nitrogen and stored at −80° C. Total RNA from spinal cord, brain and DRGs was extracted under RNase-free conditions using a RNA isolation kit (for spinal cord and brain: RNeasy® Lipid Tissue Mini Kit; Qiagen; for DRGs: RNAqueous Micro Kit; Ambion) according to the manufacturer's instructions, DNase treated for 15 min to minimize genomic DNA contamination and quantified with a NanoDrop® ND-1000 spectrophotometer (NanoDrop® Technologies). cDNA was synthesized using 200 ng RNA, random hexamer primers, RT-Enhancer and the Verso®-enzyme of the Verso® Kit (Thermo Scientific). Real-time RT-PCR was performed with an ABI Prism® 7500 Sequence Detection System (Applied Biosystems) using TaqMan Gene Expression Assays for murine Nox4 (Mm01317086_ml), Nox1 (Mm00549170_m1), Nox2 (Mm01287742_m1), Nox3 (Mm01339132_m1), GAPDH (Mm99999915_μl) and β-actin (Mm00607939_s1), purchased from Applied Biosystems. […] Relative expression of target gene levels was determined using the comparative ΔΔCt method, with Ct indicating the cycle number at which the signal of the PCR product crosses an arbitrary threshold set within the exponential phase of the PCR. […]
# (§1) Global gene ablation may cause developmental compensatory adaptations that might affect phenotypic changes in the genetically manipulated adult animal. […] Ten days after SNI, mice were i.p. injected with tamoxifen (1 mg/d for 3 d) to activate Cre recombinase and knock-down Nox4, and paw withdrawal latency times were measured up to 21 d after the first injection.
# Nox4-CreERT2 mice = assay: Mechanical allodynia (paw withdrawal latency) in the spared nerve injury (SNI) model after tamoxifen induction; type: in vivo, mouse; settings: tamoxifen 1 mg/d i.p. for 3 d starting 10 d after SNI, observed up to 21 d, no effect in the first 7 d or in tamoxifen-treated control mice
# Method: Mechanical paw sensitivity. Paw withdrawal latency after mechanical stimulation was measured with an automated von Frey-type testing device (Dynamic Plantar Aesthesiometer; Ugo Basile) which allows for reliable detection of mechanical sensitivity in mice (Schmidtko et al., 2008). The stainless steel probe of the touch stimulator unit was pushed against the paw with ascending force until a strong and immediate withdrawal occurred. The maximum force was set at 5 g and the ramp speed was 0.5 g/s. The paw withdrawal latency was calculated as the mean of 4-6 measurements with at least 20 s in between.
# Neuropathic pain. The “spared nerve injury” (SNI) model and the “chronic constriction injury” (CCI) model were used to investigate neuropathic pain behavior. Surgery was carried out under isoflurane anaesthesia. For SNI, two branches of the sciatic nerve were ligated and cut distally, leaving the sural nerve intact (Decosterd and Woolf, 2000). […]
# as §1
smiles,measurement,setting,value
"CC/C(=C(\c1ccccc1)c1ccc(OCCN(C)C)cc1)c1ccccc1 [tamoxifen, Tamoxifen]",Nox4 mRNA in DRGs as compared to vehicle-treated Nox4-CreERT2 mice,"Nox4 mRNA; Nox4-CreERT2 mice, SNI, 21 d after tamoxifen treatment, P=0.008",54%
same,Nox4 mRNA in the spinal cord as compared to vehicle-treated Nox4-CreERT2 mice,"Nox4 mRNA; Nox4-CreERT2 mice, SNI, 21 d after tamoxifen treatment, P=0.116",83%
same,"Nox4 mRNA in DRGs, of baseline levels","Nox4 mRNA; 21 d after treatment, no significant reduction in the spinal cord",~50%
same,Mechanical allodynia (paw withdrawal latency after mechanical stimulation),Nox4-CreERT2 mice,gradually recovered from mechanical allodynia
